What all share (format): cell-based
Assay [1] has as its system Providencia stuartii 5158. Description: In vitro antibacterial activity, MIC, Providencia stuartii 5158. The following applies: Providencia stuartii 5158, 37° C., pH=7.4, inoculum 10^4. The procedure:
(§1) Tests carried out in vitro in accordance with the experimental procedure described hereunder have provided evidence of the antibacterial activity in question.
(§2) For this purpose, the M.I.C. were determined i.e. the minimal inhibiting concentrations of the compound under study acting on the growth of the bacteria at 37° C.
(§3) The serial dilutions method was used utilizing a MUELLER HINTON gelose medium at pH=7.4 and a bacterial inoculum of 10^4 units forming colonies. This inoculum was applied to the gelose by means of a multiple sowing device.
(§4) A scale of concentrations ranging from 100 to 0.05 μg/ml of compound to be studied was used starting from mother solutions titrating 1000 μg/ml, all the subsequent dilutions being effected in distilled water.

Assay [2] concerns Proteus vulgaris RL 99 bis. Kind of assay: In vitro antibacterial activity, MIC, Proteus vulgaris RL 99 bis. The procedure: as §1, §2, §3, §4
In assay [3] the test system is Klebsiella pneumoniae ATCC 10031. Kind of assay: In vitro antibacterial activity, MIC, Klebsiella pneumoniae ATCC 10031. The following applies: Klebsiella pneumoniae ATCC 10031, 37° C., pH=7.4, inoculum 10^4. The procedure: as §1, §2, §3, §4
The test system of assay [4] is Bacillus subtilis ATCC 6633. Description: In vitro antibacterial activity, MIC, Bacillus subtilis ATCC 6633. The procedure: as §1, §2, §3, §4
A further assay has as its system Proteus morganii 1510. Description: In vitro antibacterial activity, MIC, Proteus morganii 1510. Here is the method: as §1, §2, §3, §4
Assay [5] concerns Citrobacter freundii GN 346. Kind of assay: In vitro antibacterial activity, MIC, Citrobacter freundii GN 346. Here is the method:
as §1, §2, §3, §4

In assay [6] the test system is Acinetobacter calcoaceticus C 1733. Kind of assay: In vitro antibacterial activity, MIC, Acinetobacter calcoaceticus C 1733. Here is the method: as §1, §2, §3, §4
Assay [7] deals with Escherichia coli 54127 IP. Description: In vitro antibacterial activity, MIC, Escherichia coli 54127 IP. The conditions noted are these: Escherichia coli 54127 IP, 37° C., pH=7.4, inoculum 10^4. The procedure: as §1, §2, §3, §4
The test system of assay [8] is Staphylococcus aureus 53154 IP. Kind of assay: In vitro antibacterial activity, MIC, Staphylococcus aureus 53154 IP. The following applies: Staphylococcus aureus 53154 IP, 37° C., pH=7.4, inoculum 10^4. Here is the method: as §1, §2, §3, §4
Assay [9] deals with Serratia liquefaciens 376. Kind of assay: In vitro antibacterial activity, MIC, Serratia liquefaciens 376. The following applies: 37° C. The procedure:
as §1, §2, §3, §4

Assay [10] relates to Streptococcus faecalis 5855 IP. Description: In vitro antibacterial activity, MIC, Streptococcus faecalis 5855 IP. The conditions noted are these: 37° C. The procedure:
as §1, §2, §3, §4

The test system of assay [11] is Salmonella typhi ATCC 6539. Description: In vitro antibacterial activity, MIC, Salmonella typhi ATCC 6539. The procedure:
as §1, §2, §3, §4

Assay [12] relates to Proteus mirabilis ATCC 21100. Kind of assay: In vitro antibacterial activity, MIC, Proteus mirabilis ATCC 21100. Here is the method:
as §1, §2, §3, §4

For assay [13], the system named is Enterobacter cloacae P 99. Kind of assay: In vitro antibacterial activity, MIC, Enterobacter cloacae P 99. The procedure: as §1, §2, §3, §4
The test system of another assay is Shigella sonnei R 018. Description: In vitro antibacterial activity, MIC, Shigella sonnei R 018. The following applies: R018, 37° C., pH=7.4, inoculum 10^4. The procedure: as §1, §2, §3, §4
For assay [14], the system named is Klebsiella pneumoniae R 30. Description: In vitro antibacterial activity, MIC, Klebsiella pneumoniae R 30. The conditions noted are these: Klebsiella pneumoniae R 30, 37° C., pH=7.4, inoculum 10^4. Here is the method: as §1, §2, §3, §4
In assay [15] the test system is Pseudomonas aeruginosa 8203. Kind of assay: In vitro antibacterial activity, MIC, Pseudomonas aeruginosa 8203. The conditions noted are these: 37° C. The procedure: as §1, §2, §3, §4
Assay [16] concerns Enterobacter hafniae RO 46. Description: In vitro antibacterial activity, MIC, Enterobacter hafniae RO 46. The following applies: Enterobacter hafniae RO 46, 37° C., pH=7.4, inoculum 10^4. The procedure: as §1, §2, §3, §4
For assay [17], the system named is Bordetella bronchiseptica ATCC 4617. Description: In vitro antibacterial activity, MIC, Bordetella bronchiseptica ATCC 4617. The procedure:
as §1, §2, §3, §4

The test system of assay [18] is Escherichia coli SOL RL 90. Kind of assay: In vitro antibacterial activity, MIC, Escherichia coli SOL RL 90. The procedure: as §1, §2, §3, §4
For assay [19], the system named is Salmonella typhimurium A 222 IP. Description: In vitro antibacterial activity, MIC, Salmonella typhimurium A 222 IP. The procedure: as §1, §2, §3, §4
[20] abbreviates: C1733, 37° C., pH=7.4, inoculum 10^4, read-out: MIC.
Where [21] appears, read: pH=7.4, inoculum 10^4, read-out: MIC.
The mark [22] stands for this setting: Enterococcus faecalis, pH=7.4, inoculum 10^4, read-out: MIC.
The mark [23] stands for this setting: Hafnia alvei, RO46, read-out: MIC.
[24] abbreviates: ATCC4617, 37° C., pH=7.4, inoculum 10^4, read-out: MIC.

Converted amounts (≈) assume the structure as drawn. Where two headings read alike, the source gives them in different places. Some results are limits rather than exact numbers.

Drawing on patent US4663329A, “Thienopyridinone derivatives and anti-bacterial compositions containing them” (Sanofi, priority 1984, dated 1987), this text covers MIC for three compounds.

In general, MIC refers to the lowest concentration that inhibits growth of the organism.

Take `CCn1cc(C(=O)O)c(=O)c2cc(C=Nc3ccccc3O)sc21` [Compound F, 4,7-Dihydro-7-ethyl-2-N-(2-hydroxy-phenyl)-iminomethyl-4-oxo-thieno[2,3-b]pyridine-5-carboxylic acid]: the minimum inhibitory concentration (MIC) is 12.5 µg/mL (≈ 36.5 µM) in assay [1] (read-out: MIC); 3.12 µg/mL (≈ 9.11 µM) in [2] (Proteus vulgaris, RL99BIS); 12.5 µg/mL (≈ 36.5 µM) in assay [3] (ATCC10031, read-out: MIC); 6.25 µg/mL (≈ 18.3 µM) in assay [4] (Bacillus subtilis, ATCC6633); 6.25 µg/mL (≈ 18.3 µM) with Proteus morganii 1510 (Morganella morganii, 1510); 6.25 µg/mL (≈ 18.3 µM) in [5] (Citrobacter freundii, GN346). Besides, the minimal inhibitory concentration (MIC) was 100 µg/mL (≈ 292 µM) in [6] (setting [20]); 1.56 µg/mL (≈ 4.56 µM) in [7] (read-out: MIC); 100 µg/mL (≈ 292 µM) in [8] (read-out: MIC); over 100 µg/mL in assay [9] (setting [21]); over 100 µg/mL in assay [10] (setting [22]); 3.12 µg/mL (≈ 9.11 µM) in [11] (Salmonella enterica). Moreover, the minimum inhibitory concentration (MIC) in [12] (Proteus mirabilis, ATCC21100) is 3.12 µg/mL (≈ 9.11 µM); in assay [13] (Enterobacter cloacae, P99), 6.25 µg/mL (≈ 18.3 µM); in the assay with Shigella sonnei R 018, 6.25 µg/mL (≈ 18.3 µM); in assay [14] (R30, read-out: MIC), 12.5 µg/mL (≈ 36.5 µM); in assay [15] (setting [21]), over 100 µg/mL; in [16] (setting [23]), 1.56 µg/mL (≈ 4.56 µM). Also, the MIC in [17] (setting [24]) was over 100 µg/mL; in assay [18] (Escherichia coli, SOLRL90), 3.12 µg/mL (≈ 9.11 µM); in assay [19] (Salmonella enterica, TYPHIMURIUM), 3.12 µg/mL (≈ 9.11 µM).

Take `CCn1cc(C(=O)O)c(=O)c2cc(C=NOC)sc21` (single isomer, unassigned) [Compound H, 4,7-Dihydro-7-ethyl-2-methoxyiminomethyl-4-oxo-thieno[2,3-b]pyridine-5-carboxylic acid, anti-isomer]: the MIC was found to be 6.25 µg/mL (≈ 22.3 µM) in assay [1]; 1.56 µg/mL (≈ 5.57 µM) in [2] (Proteus vulgaris RL 99 bis, 37° C., pH=7.4, inoculum 10^4); 0.4 µg/mL (≈ 1.43 µM) in assay [3]; 0.8 µg/mL (≈ 2.85 µM) in assay [4] (Bacillus subtilis ATCC 6633, 37° C., pH=7.4, inoculum 10^4); 0.8 µg/mL (≈ 2.85 µM) against Proteus morganii 1510 (Proteus morganii 1510, 37° C., pH=7.4, inoculum 10^4); 6.25 µg/mL (≈ 22.3 µM) in [5] (Citrobacter freundii GN 346, 37° C., pH=7.4, inoculum 10^4). The minimal inhibitory concentration (MIC) was over 25 µg/mL in assay [6] (37° C., pH=7.4, inoculum 10^4); 1.56 µg/mL (≈ 5.57 µM) in [7]; over 50 µg/mL in [8]; over 25 µg/mL in assay [9] (pH=7.4, inoculum 10^4); over 100 µg/mL in assay [10] (pH=7.4, inoculum 10^4); 25 µg/mL (≈ 89.2 µM) in assay [11] (Salmonella typhi ATCC 6539, 37° C., pH=7.4, inoculum 10^4). The minimum inhibitory concentration (MIC) is 0.8 µg/mL (≈ 2.85 µM) in [12] (Proteus mirabilis ATCC 21100, 37° C., pH=7.4, inoculum 10^4); 3.12 µg/mL (≈ 11.1 µM) in assay [13] (Enterobacter cloacae P 99, 37° C., pH=7.4, inoculum 10^4); 6.25 µg/mL (≈ 22.3 µM) in assay [14]; over 25 µg/mL in assay [15] (pH=7.4, inoculum 10^4); 3.12 µg/mL (≈ 11.1 µM) in assay [16]; over 25 µg/mL in assay [17] (37° C., pH=7.4, inoculum 10^4). Further, the MIC in [18] (Escherichia coli SOL RL 90, 37° C., pH=7.4, inoculum 10^4) came to 6.25 µg/mL (≈ 22.3 µM); in assay [19] (Salmonella typhimurium A 222 IP, 37° C., pH=7.4, inoculum 10^4) it was 12.5 µg/mL (≈ 44.6 µM).

As for `CCn1cc(C(=O)O)c(=O)c2cc(C(=O)O)sc21` [Compound X, 4,7-dihydro-7-ethyl-2-carboxy-4-oxo-thieno[2,3-b]pyridine-5-carboxylic acid, reference compound], the MIC in assay [1] (read-out: MIC) is over 100 µg/mL; in assay [2] (RL99BIS, Proteus vulgaris RL 99 bis, 37° C., pH=7.4, inoculum 10^4, read-out: MIC), over 100 µg/mL; in assay [3] (ATCC10031, read-out: MIC) it was over 100 µg/mL; in the assay with Proteus morganii 1510 (Morganella morganii, Proteus morganii 1510, 37° C., pH=7.4, inoculum 10^4, read-out: MIC) it was over 100 µg/mL; in [5] (GN346, Citrobacter freundii GN 346, 37° C., pH=7.4, inoculum 10^4, read-out: MIC), over 100 µg/mL; in assay [6] (setting [20]) it was over 100 µg/mL. Also, the MIC in assay [7] (read-out: MIC) is over 100 µg/mL; in [8] (read-out: MIC), over 100 µg/mL; in assay [9] (setting [21]) it was over 100 µg/mL; in assay [10] (setting [22]) it was over 100 µg/mL; in [11] (Salmonella enterica) it was over 100 µg/mL; in [12] (ATCC21100, Proteus mirabilis ATCC 21100, 37° C., pH=7.4, inoculum 10^4, read-out: MIC), over 100 µg/mL. Moreover, the minimum inhibitory concentration (MIC) is over 100 µg/mL in assay [13] (Enterobacter cloacae, P99); over 100 µg/mL in the assay with Shigella sonnei R 018; over 100 µg/mL in [14] (R30, read-out: MIC); over 100 µg/mL in assay [15] (setting [21]); over 100 µg/mL in assay [16] (setting [23]); over 100 µg/mL in assay [17] (setting [24]). The MIC in [18] (SOLRL90, Escherichia coli SOL RL 90, 37° C., pH=7.4, inoculum 10^4, read-out: MIC) is over 100 µg/mL; in [19] (Salmonella enterica, Salmonella typhimurium A 222 IP, 37° C., pH=7.4, inoculum 10^4, read-out: MIC) it was over 100 µg/mL.
